Measured values published in US20240408064A1, “RAS INHIBITORS, COMPOSITIONS AND METHODS OF USE THEREOF” (GENETOLEAD INC., priority 2021, published 2024).

How the values were obtained:
HRas^G12V [1] = target: T1, HRas^G12V (Homo sapiens (Human), UniProt P01112, G12V); experiment: 19F DLB (ligand-observed 19F NMR) score; format: binding; parameters: scale not given here
Method: (§1) All NMR experiments were collected using 3 mm NMR tubes on a 600 MHz Bruker Avance III spectrometer equipped with a QCI helium cryoprobe and a SampleJet sample changer. The buffer used for NMR experiments was 25 mM sodium phosphate pH 7.4, 150 mM NaCl, 5 mM MgCl2, 1 mM TCEP-d16, 10% D2O. Data were processed using Bruker TopSpin.
(§2) Since the fragment library was curated using phosphate buffer, 25 mM sodium phosphate pH 7.4, 150 mM NaCl, 5 mM MgCl2, 1 mM TCEP-d16, 10% D2O Fresh TCEP was used for experiments. Screening was performed using ^1H-decoupled 1D ^19F experiment Bruker experiment (zgfhigqn.2) with 64 scans and a relaxation delay of 5 seconds. 50 μM HRas^G12V and 240 μM of each fragment in pools (mixtures) were used.
Hit confirmation was performed using the same ^19F experiment as the screen. Ligand-observed 1D ^1H, protein-observed 1D ^1H, ^1H T2-CPMG as well as Saturation Transfer Difference (STD) experiments were also run on the same samples. Ligand-observed 1D ^1H was run using the standard Bruker sequence with excitation sculpting (zgesgp) with a relaxation delay of 10 seconds and 16 scans per spectrum. Protein-observed 1D ^1H was performed using the same sequence with a relaxation delay of 1 second and 256 scans in order to increase the signal-to-noise of the protein resonances, while keeping the experimental time relatively short. The ^1H T2-CPMG experiment employed a modified version of the Bruker 1D ^1H zgesgp experiment with the addition of a CPMG pulse train after the first 90° excitation pulse. Total duration for each spin echo was fixed at 1 ms (τ=500 μs), while the number of echoes in the pulse train was varied according to the total time (T). The number of scans for each spectrum was 4 and eight delay times were run on each sample, ranging from 1 ms to 800 ms. […]

HRas^G12V [2] = target: T1, HRas^G12V; experiment: 19F T2-CPMG NMR score; format: binding
Method: as §1, §2
Hit confirmation was performed using the same ^19F experiment as the screen. Ligand-observed 1D ^1H, protein-observed 1D ^1H, ^1H T2-CPMG as well as Saturation Transfer Difference (STD) experiments were also run on the same samples. Ligand-observed 1D ^1H was run using the standard Bruker sequence with excitation sculpting (zgesgp) with a relaxation delay of 10 seconds and 16 scans per spectrum. Protein-observed 1D ^1H was performed using the same sequence with a relaxation delay of 1 second and 256 scans in order to increase the signal-to-noise of the protein resonances, while keeping the experimental time relatively short. The ^1H T2-CPMG experiment employed a modified version of the Bruker 1D ^1H zgesgp experiment with the addition of a CPMG pulse train after the first 90° excitation pulse. Total duration for each spin echo was fixed at 1 ms (τ=500 μs), while the number of echoes in the pulse train was varied according to the total time (T). The number of scans for each spectrum was 4 and eight delay times were run on each sample, ranging from 1 ms to 800 ms.
Because of its power to probe the intrinsically weak interactions (Kd) between targets and low-molecular weight fragments, NMR fragment-based lead discovery (FBLD) is a very useful biophysical method in early stage drug discovery, especially for challenging target proteins; including those with shallow binding pockets. Since FBLD screens are performed using low-molecular weight compounds (fragments) with lower structural complexity, the same chemical space can be covered using a smaller number of drug-like fragments versus use of large libraries of higher-molecular weight lead-like compounds as in high throughput screening (HTS) campaigns. Therefore, FBLD has a much higher hit rate than HTS using only several hundred to several thousand compounds in comparison with approximately 1 million compounds for HTS. Also, the small size of the compounds screened in FBLD means a better chance to fully match the interactions with small or transient pockets within the target protein, where these less tractable pockets cannot be accessed with standard classical HTS methods. […] We expect this methodology to be more advantageous than classical HTS methods for expediting the time from hit to lead (H2L) and allows for rapid access to high quality leads with lower attrition rates in subsequent lead optimization (LO) campaigns toward pre-clinical candidate selection. FBLD screening by NMR involves a “consensus binding” approach where several distinct NMR experiments (DLB, STD, CPMG) are applied along with a free-state aggregation detection method (T2-CPMG) to rank the compounds for their affinity to the receptor (HRAS in this case) whilst simultaneously monitoring the solution behavior and critical quality attributes of each compound. The latter helps to eliminate artifact binders which are highly problematic. We performed a fluorine screen involving 461 compounds that were derived from a highly curated fragment library. Moreover, two-dimensional ^15N HSQC NMR was also used to validate ligand-binding sites on the target protein. […]

T1 sequence (P01112 1-166 G12V): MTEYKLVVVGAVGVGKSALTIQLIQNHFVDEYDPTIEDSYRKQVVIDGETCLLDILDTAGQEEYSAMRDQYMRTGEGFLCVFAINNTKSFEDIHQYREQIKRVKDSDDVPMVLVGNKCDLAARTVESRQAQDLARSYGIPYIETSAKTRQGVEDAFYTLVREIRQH

Compound	19F DLB Score (HRas^G12V [1])	19F T2-CPMG Score (HRas^G12V [2])
CC(C)N1CCN(C(=O)Cc2c[nH]c3cc(F)ccc23)CC1 [Compound 10068]	2.43	10.72
COCC1CN(C(=O)Cc2c[nH]c3cc(F)ccc23)C1 [Compound 10075]	1.77	7.09
COc1cccc(NC(=O)Cc2c[nH]c3cc(F)ccc23)c1 [Compound 10030]	3.05	18.47
O=C(O)[C@H]1CCCCN1C(=O)Cc1c[nH]c2cc(F)ccc12 [Compound 10125]	1.56	10.15
CCC(C(=O)N1CC(C)C1)c1c[nH]c2cc(F)ccc12 (stereo not drawn) [Compound 11005]	3.19	16.59
O=C(Cc1c[nH]c2cc(F)ccc12)Nc1ncccn1 [Compound 10078, 2-(6-fluoro-1H-indol-3-yl)-N-(pyrimidin-2-yl) acetamide]	2.07	11.04
COCC1(C)CN(C(=O)Cc2c[nH]c3cc(F)ccc23)C1 [Compound 10134, 2-(6-fluoro-1H-indol-3-yl)-1-(3-(methoxymethyl)-3-methylazetidin-1-yl)ethan-1-one]	2.1	13.32
O=C(O)C1CCN(C(=O)Cc2c[nH]c3cc(F)ccc23)CC1 [Compound 10129]	1.27	3.92
CC(=O)C1CN(C(=O)Cc2c[nH]c3cc(F)ccc23)C1 [Compound 10138]	1.98	14.25
O=C(Cc1c[nH]c2cc(F)ccc12)Nc1ccc2c(c1)OCO2 [Compound 10059]	3.22	18.99
O=C(Cc1c[nH]c2cc(F)ccc12)Nc1ccc2[nH]ccc2c1 [Compound 10042]	2.72	37.91
CN1CCN(C(=O)Cc2c[nH]c3cc(F)ccc23)CC1 [Compound 10065]	2.88	22.6
COC(=O)[C@@H]1CN(C)CCN1C(=O)Cc1c[nH]c2cc(F)ccc12 [Compound 10167]	3.62	5.07
CN(C)Cc1ccc(NC(=O)C(C#N)c2c[nH]c3cc(F)ccc23)cc1 (stereo not drawn) [Compound 11030]	2.9	21.82
Fc1ccc2c(C3CCNCC3)c[nH]c2c1 [Compound 11012]	2.58	13.63
COCC1(O)CN(C(=O)Cc2c[nH]c3cc(F)ccc23)C1 [Compound 10089, 2-(6-fluoro-1H-indol-3-yl)-1-(3-hydroxy-3-(methoxymethyl)azetidin-1-yl)ethan-1-one]	1.89	9.84
O=C(Cc1c[nH]c2cc(F)ccc12)N1CCO[C@H](CO)C1 [Compound 10148]	1.87	12.46
CC(=O)N1CCC(C(=O)N2CCC(c3c[nH]c4cc(F)ccc34)C2)CC1 (stereo not drawn) [Compound 11024]	1.89	9.57
O=C(c1ccc(F)cc1F)N1CCC(c2c[nH]c3cc(F)ccc23)C1 (stereo not drawn) [Compound 11018]	2.51	9.96
O=C(C1CCC(O)CC1)N1CCC(c2c[nH]c3cc(F)ccc23)C1 (stereo not drawn) [Compound 11019]	2.2	12.9
CC(C)(C)OC(=O)N1CCC(C(=O)N2CCC(c3c[nH]c4cc(F)ccc34)CC2)C1 (stereo not drawn) [Compound 11017]	1.86	16.89
